Read-outs that look alike come from different tables or passages of the source.
Columns and labels:
[1] = target: T1, complement protein C2 (Homo sapiens, UniProt P06681); experiment: Inactivation rate of complement protein C2; type: biochemical
T1 sequence (P06681 21-752): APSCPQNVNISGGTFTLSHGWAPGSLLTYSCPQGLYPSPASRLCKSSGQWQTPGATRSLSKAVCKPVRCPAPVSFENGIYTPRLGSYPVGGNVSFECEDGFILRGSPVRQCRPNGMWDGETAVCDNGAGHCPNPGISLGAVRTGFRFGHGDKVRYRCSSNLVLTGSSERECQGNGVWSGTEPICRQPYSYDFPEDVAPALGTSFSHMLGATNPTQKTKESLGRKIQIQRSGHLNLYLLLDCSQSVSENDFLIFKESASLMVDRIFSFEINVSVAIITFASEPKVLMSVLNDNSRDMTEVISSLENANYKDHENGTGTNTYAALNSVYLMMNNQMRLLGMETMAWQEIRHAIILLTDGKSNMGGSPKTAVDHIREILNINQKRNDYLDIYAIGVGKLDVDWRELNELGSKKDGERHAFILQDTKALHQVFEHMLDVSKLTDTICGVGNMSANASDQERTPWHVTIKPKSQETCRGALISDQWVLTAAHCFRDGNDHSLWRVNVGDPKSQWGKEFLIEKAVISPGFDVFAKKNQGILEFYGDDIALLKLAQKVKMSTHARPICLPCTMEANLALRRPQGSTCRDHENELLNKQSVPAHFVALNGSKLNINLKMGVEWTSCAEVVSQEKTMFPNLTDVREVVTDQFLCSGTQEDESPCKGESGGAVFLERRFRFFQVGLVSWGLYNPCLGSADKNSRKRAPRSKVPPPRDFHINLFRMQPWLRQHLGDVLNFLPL
Experimental: (§1) Inactivation rates of serine proteases by substituted isocoumarins were measured by the incubation method. An aliquot of inhibitor (25 or 50 μl) in Me2 SO was added to a buffered enzyme solution (0.01-2.3 μM) to initiate the inactivation. Aliquots (50 μl) were withdrawn at various intervals and the residual enzymatic activity was measured. Me2 SO concentration in the reaction mixture was 8-12% (v/v). 0.1 Hepes, 0.01M CaCl2, pH 7.5 buffer was utilized for trypsin and coagulation enzymes. 0.1M Hepes, 0.5M NaCl, pH 7.5 was utilized for other serine proteases. The inhibitor concentrations are shown in all the tables. Peptide thioesters or peptide nitroanilides with appropriate sequence were used as substrates for various serine proteases. All peptide thioester hydrolysis rates were measured with assay mixtures containing 4,4'-dithiodipyridine (ε324 =19800M^-1 cm^-1; Grasetti & Murray, Arch. Biochem. Biophys. 119, pp 41-49 (1967)). Peptide 4-nitroanilide nitroanilide hydrolysis was measured at 410 nm (ε410 =8800M^-1 cm^-1; Erlanger et al., Arch. Biochem. Biophys. 95, pp 271-278 (1961)). First order inactivation rate constant (kobs) were obtained from plots of ln (vt /vo) vs time, and the correlation coefficients were greater than 0.98.
(§2) ^a Conditions were 0.1M Hepes, 0.5M NaCl, pH 7.5, 8-10% Me2 SO
(§3) and 25° C. Inactivation rates were measured by incubation method.
(§4) Enzyme concentrations were as follows: protein D, 1-9 μM; C2, 0.7-1
(§5) μM; B, 1.8 μM; Bb, 0.3-0.8 μM; Cl^- s, 0.07 μM; Cl^-

[2] = target: sheep lung lymph tryptase; experiment: Inactivation rate of sheep lung lymph tryptase; type: biochemical; conditions: Table III; 0.1M Hepes, 0.5M NaCl, pH 7.0, 25° C
Experimental: Inactivation rates of serine proteases by substituted isocoumarins were measured by the incubation method. An aliquot of inhibitor (25 or 50 μl) in Me2 SO was added to a buffered enzyme solution (0.01-2.3 μM) to initiate the inactivation. Aliquots (50 μl) were withdrawn at various intervals and the residual enzymatic activity was measured. […] 0.1 Hepes, 0.01M CaCl2, pH 7.5 buffer was utilized for trypsin and coagulation enzymes. […] The inhibitor concentrations are shown in all the tables. Peptide thioesters or peptide nitroanilides with appropriate sequence were used as substrates for various serine proteases.
(§6) ^a Inactivation rates were measured at 0.1M Hepes, 0.5M NaCl, pH 7.5
(§7) buffer, 8% Me2 SO and 25° C.

[3] = target: complement protein D (Homo sapiens, UniProt P00746); experiment: Inactivation rate of complement protein D; type: biochemical; conditions: Table II; pH 7.5, 25° C; [I] 0.05 to 1.29 mM
complement protein D, sequence (P00746 26-253): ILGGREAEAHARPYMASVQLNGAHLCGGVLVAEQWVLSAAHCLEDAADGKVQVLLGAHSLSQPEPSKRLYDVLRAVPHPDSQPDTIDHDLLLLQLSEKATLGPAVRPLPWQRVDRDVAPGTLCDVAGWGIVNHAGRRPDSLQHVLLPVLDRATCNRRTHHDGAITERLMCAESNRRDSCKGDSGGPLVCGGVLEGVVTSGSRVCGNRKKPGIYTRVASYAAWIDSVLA
Experimental: as §1, §2, §3, §4, §5

[4] = target: complement protein B (Homo sapiens, UniProt P00751); experiment: Inactivation rate of complement protein B; type: biochemical
complement protein B, sequence (P00751 26-764): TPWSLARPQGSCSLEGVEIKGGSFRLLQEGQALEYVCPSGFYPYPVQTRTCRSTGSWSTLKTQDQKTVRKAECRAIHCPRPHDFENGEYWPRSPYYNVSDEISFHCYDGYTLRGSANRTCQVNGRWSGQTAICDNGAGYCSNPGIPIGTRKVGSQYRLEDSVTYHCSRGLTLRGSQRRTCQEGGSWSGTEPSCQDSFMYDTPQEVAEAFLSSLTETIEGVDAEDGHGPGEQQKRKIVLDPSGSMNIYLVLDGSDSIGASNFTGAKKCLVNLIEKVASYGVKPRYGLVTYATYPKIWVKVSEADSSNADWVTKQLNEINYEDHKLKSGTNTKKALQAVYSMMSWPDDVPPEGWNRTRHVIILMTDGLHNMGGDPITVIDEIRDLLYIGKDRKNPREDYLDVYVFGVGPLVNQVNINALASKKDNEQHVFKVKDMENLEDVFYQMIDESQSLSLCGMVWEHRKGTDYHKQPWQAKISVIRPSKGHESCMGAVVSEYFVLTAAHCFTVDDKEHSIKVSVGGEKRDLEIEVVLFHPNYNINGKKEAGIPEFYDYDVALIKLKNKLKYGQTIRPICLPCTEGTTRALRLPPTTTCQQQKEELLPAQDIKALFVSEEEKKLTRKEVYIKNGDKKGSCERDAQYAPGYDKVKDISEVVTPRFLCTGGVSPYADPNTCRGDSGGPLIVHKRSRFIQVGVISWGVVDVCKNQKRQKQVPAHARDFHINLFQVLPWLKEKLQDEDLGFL
Experimental: as §1, §2, §3, §4, §5

[5] = target: recombinant human tissue plasminogen activator (Homo sapiens, UniProt P00750); experiment: Inactivation rate of recombinant human tissue plasminogen activator; type: biochemical; conditions: pH 7.5, Table IX; pH 7.5, 25° C; [I] 3.5-5.0 μM; read-out: kobs/[I]
recombinant human tissue plasminogen activator, sequence (P00750 36-562): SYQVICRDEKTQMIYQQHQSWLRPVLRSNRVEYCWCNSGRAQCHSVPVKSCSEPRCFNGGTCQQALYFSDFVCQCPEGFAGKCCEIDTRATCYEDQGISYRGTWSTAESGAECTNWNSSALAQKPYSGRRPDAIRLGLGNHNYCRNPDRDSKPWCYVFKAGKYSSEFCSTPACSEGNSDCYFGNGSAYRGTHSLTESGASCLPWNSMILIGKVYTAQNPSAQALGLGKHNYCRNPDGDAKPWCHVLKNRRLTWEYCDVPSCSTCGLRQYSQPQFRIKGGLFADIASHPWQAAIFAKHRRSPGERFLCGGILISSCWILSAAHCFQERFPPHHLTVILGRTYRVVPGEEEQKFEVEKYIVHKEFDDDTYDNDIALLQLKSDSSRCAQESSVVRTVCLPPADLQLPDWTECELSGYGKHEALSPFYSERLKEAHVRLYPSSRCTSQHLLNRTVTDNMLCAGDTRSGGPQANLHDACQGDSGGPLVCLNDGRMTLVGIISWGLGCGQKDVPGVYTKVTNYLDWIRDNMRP
Experimental: as §1
^a Inactivation constants were measured at 0.1M Hepes, 0.5M NaCl (or
(§8) ^a Inhibition rates were measured in 0.1M Hepes, 0.01M CaCl2, pH
(§9) 7.5 buffer for human plasmin; 25 mM Phosphate, 0.5M NaCl, 1 mM EDTA, pH
(§10) 7.5 buffer for rat skin tryptase and 0.1M Hepes, 0.5M NaCl, pH 7.5 for
(§11) human lung tryptase, human skin tryptase and rt-PA. All enzymes were
(§12) assayed with ZArg-SBzl (0.07 mM) in the presence of 4,4dithiodipyridine
(§13) (0.33 mM). Reaction mixtures contained 8% Me2 SO and assays were […]

[6] = target: T2, human factor XIIa (Homo sapiens, UniProt P00748); experiment: Inactivation rate of human factor XIIa; type: biochemical; conditions: Table VIII; pH 7.5, 25° C; [I] 3.6-4.9 μM; read-out: kobs/[I]
T2 construct: human factor XIIa
T2 sequence (P00748 373-615 limits assumed): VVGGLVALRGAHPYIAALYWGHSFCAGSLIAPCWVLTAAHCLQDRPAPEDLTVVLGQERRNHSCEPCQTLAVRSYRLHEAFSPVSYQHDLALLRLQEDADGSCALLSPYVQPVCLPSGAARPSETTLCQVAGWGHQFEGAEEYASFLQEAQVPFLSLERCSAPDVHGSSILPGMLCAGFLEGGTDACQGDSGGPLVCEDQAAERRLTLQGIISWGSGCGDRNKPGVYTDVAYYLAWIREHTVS
T2 sequence (P00748 20-372 partner limits assumed): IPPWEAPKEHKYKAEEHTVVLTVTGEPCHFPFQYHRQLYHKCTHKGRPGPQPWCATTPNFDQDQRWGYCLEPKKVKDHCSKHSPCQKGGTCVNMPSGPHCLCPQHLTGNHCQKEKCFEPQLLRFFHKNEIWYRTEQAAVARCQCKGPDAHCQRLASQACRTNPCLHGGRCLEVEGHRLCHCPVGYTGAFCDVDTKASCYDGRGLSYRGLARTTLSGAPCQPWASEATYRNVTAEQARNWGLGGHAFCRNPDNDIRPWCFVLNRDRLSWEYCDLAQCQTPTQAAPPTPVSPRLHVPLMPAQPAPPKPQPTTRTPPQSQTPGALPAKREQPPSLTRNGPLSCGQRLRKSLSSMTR
Experimental: as §1
(§14) ^a Conditions were as 0.1M Hepes, 0.01M CaCl2, pH 7.5 and 8-12%
(§15) Me2 SO and 25° C. Rate constants were measured by incubation
(§16) method unless otherwise noted. An aliquot of inhibitor was added to an
(§17) enzyme solution and aliquots removed with time and assayed for remaining
(§18) enzymatic activity. Firstorder rate constants, kobs were obtained
(§19) from the plots of ln(vt /vo) versus time.
as §8
(§20) 7.5 buffer, 8% Me2 SO and at 25° C.

[7] = target: T3, human factor Xa (Homo sapiens, UniProt P00742); experiment: Inactivation rate of human factor Xa; type: biochemical; conditions: Table VIII; pH 7.5, 25° C; [I] 3.6-44 μM; read-out: kobs/[I]
T3 construct: human factor Xa
T3 sequence (P00742 235-488 limits assumed): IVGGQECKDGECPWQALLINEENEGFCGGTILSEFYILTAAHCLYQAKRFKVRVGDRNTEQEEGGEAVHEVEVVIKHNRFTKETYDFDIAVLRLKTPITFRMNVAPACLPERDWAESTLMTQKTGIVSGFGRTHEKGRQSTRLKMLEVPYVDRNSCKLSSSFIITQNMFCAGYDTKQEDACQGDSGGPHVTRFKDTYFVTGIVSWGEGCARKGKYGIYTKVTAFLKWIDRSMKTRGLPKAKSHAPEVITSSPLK
T3 sequence (P00742 41-179 partner limits assumed): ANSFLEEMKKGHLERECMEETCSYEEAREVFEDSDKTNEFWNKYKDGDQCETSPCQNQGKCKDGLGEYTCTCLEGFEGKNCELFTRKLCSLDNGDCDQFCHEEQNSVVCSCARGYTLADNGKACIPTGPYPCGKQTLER
Experimental: as §1, §14, §15, §16, §17, §18, §19, §8, §20

[8] = tested on: pig plasma; experiment: Activated partial thromboplastin time (APTT), pig plasma; conditions: [I] 32 μM
[9] = tested on: pig plasma; experiment: Prothrombin time (PT), pig plasma; conditions: [I] 32 μM
[10] = target: T4, rat skin tryptase (Rattus norvegicus, UniProt P27435); experiment: Inactivation rate of rat skin tryptase; type: biochemical; conditions: pH 7.5, Table IX; pH 7.5, 25° C; [I] 0.42-0.51 μM; read-out: kobs/[I]
T4 construct: from tissue; host or cells: rat skin
T4 sequence (P27435 29-273): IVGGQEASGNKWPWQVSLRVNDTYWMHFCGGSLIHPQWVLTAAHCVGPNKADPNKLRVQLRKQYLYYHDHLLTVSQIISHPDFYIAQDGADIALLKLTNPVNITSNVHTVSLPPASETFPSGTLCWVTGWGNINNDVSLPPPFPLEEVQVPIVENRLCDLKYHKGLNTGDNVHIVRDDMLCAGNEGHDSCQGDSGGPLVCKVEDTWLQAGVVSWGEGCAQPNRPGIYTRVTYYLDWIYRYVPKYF
Experimental: as §1
^b Inactivation rates were measured at 25 mM phosphate, 0.5M NaCl, 1
mM EDTA, pH 7.5 buffer, 9% Me2 SO and 25° C.
as §8, §9, §10, §11, §12, §13

[11] = target: human lung tryptase; experiment: Inactivation rate of human lung tryptase; type: biochemical; conditions: Table IX; pH 7.5, 25° C; [I] 0.42-0.47 μM
Experimental: as §1, §6, §7, §8, §9, §10, §11, §12, §13

[12] = target: T5, human factor XIa (Homo sapiens, UniProt P03951); experiment: Inactivation rate of human factor XIa; type: biochemical; conditions: Table VIII; pH 7.5, 25° C; [I] 0.7-0.8 μM; read-out: kobs/[I]
T5 construct: human factor XIa
T5 sequence (P03951 388-625 limits assumed): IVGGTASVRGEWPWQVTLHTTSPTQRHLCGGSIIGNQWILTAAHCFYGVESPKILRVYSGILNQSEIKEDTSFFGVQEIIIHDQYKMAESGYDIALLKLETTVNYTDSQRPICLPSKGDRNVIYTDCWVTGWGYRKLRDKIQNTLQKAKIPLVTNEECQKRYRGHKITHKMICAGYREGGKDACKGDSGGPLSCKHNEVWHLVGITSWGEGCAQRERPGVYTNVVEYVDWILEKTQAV
T5 sequence (P03951 19-387 partner limits assumed): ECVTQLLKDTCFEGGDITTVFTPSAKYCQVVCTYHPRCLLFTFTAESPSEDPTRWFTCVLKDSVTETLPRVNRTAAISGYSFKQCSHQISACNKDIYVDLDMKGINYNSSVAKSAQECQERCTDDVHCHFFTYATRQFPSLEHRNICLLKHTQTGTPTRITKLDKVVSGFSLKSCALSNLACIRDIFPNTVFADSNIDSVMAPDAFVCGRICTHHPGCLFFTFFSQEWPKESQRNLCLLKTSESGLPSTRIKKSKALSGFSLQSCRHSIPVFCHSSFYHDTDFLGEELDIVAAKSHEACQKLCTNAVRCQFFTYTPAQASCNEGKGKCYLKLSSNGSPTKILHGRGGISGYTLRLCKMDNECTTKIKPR
Experimental: as §1, §14, §15, §16, §17, §18, §19, §8, §20

[13] = target: T6, human thrombin (Homo sapiens, UniProt P00734); experiment: Inactivation rate of human thrombin; type: biochemical; conditions: Table VIII; pH 7.5, 25° C; [I] 1.2-54 μM; read-out: kobs/[I]
T6 construct: human thrombin
Experimental: as §1, §8, §20

[14] = target: T7, bovine thrombin (Bos taurus, UniProt P00735); experiment: Inactivation rate of bovine thrombin; type: biochemical; conditions: Table VIII; pH 7.5, 25° C; [I] 1.2-54 μM; read-out: kobs/[I]
T7 construct: bovine thrombin
Method in brief: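 First-order kobs came from ln(vt/vo)-versus-time plots of remaining activity, measured on timed aliquots with thioester or nitroanilide substrates. Enzyme at 0.01-2.3 μM was preincubated with inhibitor at 25° C in pH 7.5 Hepes/0.01M CaCl2 buffer containing 8-12% Me2SO.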

[15] = target: T8, human leukocyte elastase (HLE) (Homo sapiens, UniProt P08246); experiment: Inactivation of human leukocyte elastase (HLE); type: biochemical; conditions: Table X; for kinact/KI: pH 7.5, biphasic inhibition
T8 construct: from tissue; host or cells: human leukocytes (from the name)
T8 sequence (P08246 30-267): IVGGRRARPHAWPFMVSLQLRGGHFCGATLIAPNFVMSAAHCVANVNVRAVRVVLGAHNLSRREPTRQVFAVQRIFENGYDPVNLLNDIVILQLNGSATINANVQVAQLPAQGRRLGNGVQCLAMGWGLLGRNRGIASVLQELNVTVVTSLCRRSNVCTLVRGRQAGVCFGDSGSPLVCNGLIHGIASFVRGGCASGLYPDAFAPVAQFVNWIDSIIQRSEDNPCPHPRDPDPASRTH
Experimental: (§21) Inactivation rates of serine proteases by substituted isocoumarins were measured by the incubation method. An aliquot of inhibitor (25 or 50 μl) in Me2 SO was added to a buffered enzyme solution (0.01-2.3 μM) to initiate the inactivation. Aliquots (50 μl) were withdrawn at various intervals and the residual enzymatic activity was measured. Me2 SO concentration in the reaction mixture was 8-12% (v/v). 0.1 Hepes, 0.01M CaCl2, pH 7.5 buffer was utilized for trypsin and coagulation enzymes. 0.1M Hepes, 0.5M NaCl, pH 7.5 was utilized for other serine proteases. […] Peptide thioesters or peptide nitroanilides with appropriate sequence were used as substrates for various serine proteases. All peptide thioester hydrolysis rates were measured with assay mixtures containing 4,4'-dithiodipyridine (ε324 =19800M^-1 cm^-1 ; Grasetti & Murray, Arch. Biochem. Biophys. 119, pp 41-49 (1967)). Peptide 4-nitroanilide nitroanilide hydrolysis was measured at 410 nm (ε410 =8800M^-1 cm^-1 ; Erlanger et al., Arch. Biochem. Biophys. 95, pp 271-278 (1961)). First order inactivation rate constant (kobs) were obtained from plots of ln (vt /vo) vs time, and the correlation coefficients were greater than 0.98.
(§22) ^a Inactivation rates were measured at 0.1M Hepes, 0.5 NaCl, pH 7.5,
(§23) 8-12% Me2 SO and 25° C. by incubation method.
(§24) ^a Inhibition rates were measured in 0.1M Hepes, 0.05M NaCl, pH 7.5
buffer, 8-9% Me2 SO and at 25° C.
(§25) ^a Inhibition constants were in 0.1M Hepes, 0.5M NaCl, pH 7.5 buffer,
8-9% Me2 SO and at 25° C.
(§26) ^a Inhibition rates were measured in 0.1M Hepes, 0.5M NaCl, 2.5%
Me2 SO, pH 7,5 and at 25° C.
(§27) ^a Inhibition was measured in 0.1M Hepes, 0.5M NaCl, pH 7.5 buffer,
(§28) 5-10% Me2 SO and at 25° C. Suc--Val--Pro--Phe--NA (0.48 mM)
(§29) was used as the substrate for chymotrypsin and cat G.
(§30) ^a Inhibition rates were measured in 0.1M Hepes, 0.5M NaCl, pH 7.5

[16] = target: chymotrypsin (Bos taurus, UniProt P00766); experiment: Inactivation of chymotrypsin; type: biochemical, bovine; conditions: Table X; pH 7.5, 25° C; [I] 0.9-43 μM; read-out: kobs/[I]
[17] = target: T9, cathepsin G (Homo sapiens, UniProt P08311); experiment: Inactivation of cathepsin G; type: biochemical; conditions: Table X; pH 7.5, 25° C; [I] 33-46 μM; read-out: kobs/[I]
T9 construct: from tissue; host or cells: human leukocytes
T9 sequence (P08311 21-255): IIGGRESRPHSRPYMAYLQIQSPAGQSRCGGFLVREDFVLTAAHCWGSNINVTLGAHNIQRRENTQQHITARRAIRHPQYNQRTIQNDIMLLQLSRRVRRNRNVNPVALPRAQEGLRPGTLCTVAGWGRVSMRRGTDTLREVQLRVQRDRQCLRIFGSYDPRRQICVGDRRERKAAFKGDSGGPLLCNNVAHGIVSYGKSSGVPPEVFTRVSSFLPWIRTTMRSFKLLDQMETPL
Experimental: as §21, §22, §23
and assayed for remaining activity.
as §24
buffer, 8-9% Me2 SO and at 25° C.
Me2 SO, pH 7,5 and at 25° C.
as §27, §28, §29

[18] = target: T10, porcine pancreatic elastase (PPE) (Sus scrofa, UniProt P00772); experiment: Inactivation of porcine pancreatic elastase (PPE); type: biochemical; conditions: Table X; after 20 min incubation
T10 construct: from tissue; host or cells: porcine pancreas (from the name)
T10 sequence (P00772 27-266): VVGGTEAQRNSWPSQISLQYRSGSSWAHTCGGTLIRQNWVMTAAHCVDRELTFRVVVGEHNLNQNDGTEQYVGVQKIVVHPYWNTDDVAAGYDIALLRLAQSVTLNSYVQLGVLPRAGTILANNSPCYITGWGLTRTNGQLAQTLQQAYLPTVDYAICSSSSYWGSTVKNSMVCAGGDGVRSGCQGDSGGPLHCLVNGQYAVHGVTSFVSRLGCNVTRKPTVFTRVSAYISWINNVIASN
Experimental: as §21, §22, §23, §24
buffer, 8-9% Me2 SO and at 25° C.
as §25
8-9% Me2 SO and at 25° C.
as §26
Me2 SO, pH 7,5 and at 25° C.
as §27, §28, §29, §30

[19] = target: T11, human plasmin (Homo sapiens, UniProt P00747); experiment: Inactivation rate of human plasmin; type: biochemical; conditions: Table IX; 0.01M CaCl2, pH 7.5, 25° C; [I] 8.3-41 μM; read-out: kobs/[I]
T11 construct: human plasmin; from tissue; host or cells: human plasma
T11 sequence (P00747 581-810 limits assumed): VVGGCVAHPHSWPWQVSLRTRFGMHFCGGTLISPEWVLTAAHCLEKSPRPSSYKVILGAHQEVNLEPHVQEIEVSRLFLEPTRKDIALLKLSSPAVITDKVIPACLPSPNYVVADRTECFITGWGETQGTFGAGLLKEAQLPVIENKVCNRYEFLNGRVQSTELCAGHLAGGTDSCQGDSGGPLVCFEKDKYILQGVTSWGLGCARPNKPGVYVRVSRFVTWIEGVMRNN
T11 sequence (P00747 97-580 partner limits assumed): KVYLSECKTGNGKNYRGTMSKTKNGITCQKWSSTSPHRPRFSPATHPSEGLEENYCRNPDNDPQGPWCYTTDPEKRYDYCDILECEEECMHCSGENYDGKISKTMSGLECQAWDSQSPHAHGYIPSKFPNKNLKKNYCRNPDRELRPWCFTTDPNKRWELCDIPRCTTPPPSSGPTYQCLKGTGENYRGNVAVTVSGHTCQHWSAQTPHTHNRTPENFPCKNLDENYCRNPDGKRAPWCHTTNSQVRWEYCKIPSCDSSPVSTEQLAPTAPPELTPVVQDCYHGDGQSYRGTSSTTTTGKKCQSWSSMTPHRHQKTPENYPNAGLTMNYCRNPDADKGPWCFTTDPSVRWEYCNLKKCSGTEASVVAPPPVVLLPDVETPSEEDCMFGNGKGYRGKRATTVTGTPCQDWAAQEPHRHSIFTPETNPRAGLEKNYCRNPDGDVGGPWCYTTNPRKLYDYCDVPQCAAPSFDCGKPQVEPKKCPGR

Row | SMILES | APTT [8] [s] | PT [9] [s] | kinact/KI [13] [M⁻¹ s⁻¹] | kinact/KI [14] [M⁻¹ s⁻¹] | kinact/KI [16] [M⁻¹ s⁻¹] | kinact/KI [17] [M⁻¹ s⁻¹] | percentage of inhibition [18] [%] | also measured
1 | N=C(N)c1ccc(CS(=O)(=O)F)cc1 [APMSF, 4-amidinophenylmethane sulfonyl fluoride, reference compound] | – | – | – | – | – | – | – | inhibition of C2 (in words) [1]: do not show any inhibition; kobs/[I] [2]: 230 M⁻¹ s⁻¹; kobs/[I] [3]: 110 M⁻¹ s⁻¹; inhibition of protein B (in words) [4]: do not show any inhibition
2 | N=C(N)SCCOc1oc(=O)c2cc(NC(=O)NCc3ccccc3)ccc2c1Cl [PhCH2 NHCONH-CiTEtOIC, 7-(benzylcarbamoylamino)-4-chloro-3-(2-isothiureidoethoxy)isocoumarin] | > 120 | 31.1 | 11700 | 16800 | – | – | – | kinact/KI [5]: 19000 M⁻¹ s⁻¹; kinact/KI [6]: 45000 M⁻¹ s⁻¹; kinact/KI [7]: 2340 M⁻¹ s⁻¹; kinact/KI [10]: 200000 M⁻¹ s⁻¹; kobs/[I] [11]: 280,000 M^-1 s^-1; kinact/KI [12]: 105000 M⁻¹ s⁻¹
3 | C[C@@H](NC(=O)Nc1ccc2c(Cl)c(OCCSC(=N)N)oc(=O)c2c1)c1ccccc1 [R-C6 H5 (CH3)CHNHCONH-CiTEtOIC, 7-((R)-α-methylbenzylcarbamoylamino)-4-chloro-3-(2-isothiureidoethoxy)isocoumarin] | > 120 | 26.2 | 12000 | 29500 | 360 | 145 | 9 | percentage of inhibition ([15]; after 5 min incubation): 40%
4 | C[C@H](NC(=O)Nc1ccc2c(Cl)c(OCCSC(=N)N)oc(=O)c2c1)c1ccccc1 [S-C6 H5 (CH3)CHNHCONH-CiTEtOIC, 7-((S)-α-methylbenzylcarbamoylamino)-4-chloro-3-(2-isothiureidoethoxy)isocoumarin] | > 120 | 30.0 | 21000 | 41300 | 260 | 35 | 21 | kinact/KI ([15]; read-out: kobs/[I] (biphasic, first value)): 5100 M⁻¹ s⁻¹; kinact/KI ([15]; read-out: kobs/[I] (biphasic, second value)): 360 M⁻¹ s⁻¹; kinact/KI [19]: 27800 M⁻¹ s⁻¹

Source: patent publication US5324648A, “Substituted isocoumarins as serine protease inhibitors and anti-inflammatory agents” (Georgia Tech Research Corporation, priority 1992, dated 1994)
